# Experimental data published in PMC10033409, “Autoregulation of GPCR signalling through the third intracellular loop” (Nature, 2023).
# Where “and” joins values, the source holds several entries; their conditions need not be identical. Equal values may be shown once.
# Target: β2AR (Homo sapiens, UniProt P07550)
# Experiment: Radiolabelled antagonist-binding assay (saturation);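 note: membranes expressing β2AR constructs, equilibrated with radioligand on ice, bound ligand retained on GF/C filters, Bmax normalized to membrane protein from a DC assay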
# Parameters: HA; expressed in transfected cells; host or cells: crude membrane extracts of transfected cells; Bmax / 125I-Cyanopindolol saturation binding signal: unit not given here
# Details: for Bmax / fmol 125I-Cyanopindolol/mg sample: replicates 1-3 and Average; for fmol 125I-Cyanopindolol/mg sample, Fit: fitted curve
# [1] = Wild-Type + Gs-peptide, 125I-Cyanopindolol 0.000239059 nM
# [2] = Wild-Type + Gs-peptide, 125I-Cyanopindolol 0.0167722 nM
# [3] = Wild-Type + Gs-peptide, 125I-Cyanopindolol 0.0344858 nM
# [4] = Wild-Type + Gs-peptide, 125I-Cyanopindolol 0.073983 nM
# [5] = Wild-Type + Gs-peptide, 125I-Cyanopindolol 0.202201 nM
# [6] = Wild-Type + Gs-peptide, 125I-Cyanopindolol 0.415365 nM
# [7] = Wild-Type + Gs-peptide, 125I-Cyanopindolol 0.83063 nM
# [8] = Wild-Type + Gs-peptide, 125I-Cyanopindolol 1.64238 nM
substance,measurement,setting,value
[^125I](±)-cyanopindolol,125I-Cyanopindolol saturation binding signal,"Wild-Type + 30 µM Gq-peptide, 0.0283 nM, Average",147.58
same,125I-Cyanopindolol saturation binding signal,"Wild-Type + 30 µM Gq-peptide, 0.0283 nM, Fit",291.67
same,125I-Cyanopindolol saturation binding signal,"Wild-Type + 30 µM Gq-peptide, 0.0283 nM, experiments 1-3",132.79 and 160.83 and 149.12
same,125I-Cyanopindolol saturation binding signal,"Wild-Type + 30 µM Gq-peptide, 0.0474 nM, Average",534.47
same,125I-Cyanopindolol saturation binding signal,"Wild-Type + 30 µM Gq-peptide, 0.0474 nM, Fit",446.28
same,125I-Cyanopindolol saturation binding signal,"Wild-Type + 30 µM Gq-peptide, 0.0474 nM, experiments 1-3",334.07 and 648.49 and 620.85
same,125I-Cyanopindolol saturation binding signal,"Wild-Type + 30 µM Gq-peptide, 0.10 nM, Average",767.43
same,125I-Cyanopindolol saturation binding signal,"Wild-Type + 30 µM Gq-peptide, 0.10 nM, Fit",753.07
same,125I-Cyanopindolol saturation binding signal,"Wild-Type + 30 µM Gq-peptide, 1.85 nM, Average",1934.67
same,125I-Cyanopindolol saturation binding signal,"Wild-Type + 30 µM Gq-peptide, 1.85 nM, Fit",1934.64
same,Bmax,Wild-Type + Gs-pep,2030.45 and 2045.98 and 1796.67
same,Bmax,"Wild-Type + Gs-pep, mean",1957.70
same,"fmol 125I-Cyanopindolol/mg sample, Fit",[1],0.00E+00 fmol/mg sample
same,fmol 125I-Cyanopindolol/mg sample,[1],-0.7197 fmol/mg sample and 0.9706 fmol/mg sample and -1.162 fmol/mg sample
same,fmol 125I-Cyanopindolol/mg sample,"Wild-Type + Gs-peptide, 125I-Cyanopindolol 0.000239059 nM, mean",-0.3038 fmol/mg sample
same,"fmol 125I-Cyanopindolol/mg sample, Fit",[2],4.58E+02 fmol/mg sample
same,fmol 125I-Cyanopindolol/mg sample,[2],412.161 fmol/mg sample and 473.943 fmol/mg sample and 418.268 fmol/mg sample
same,fmol 125I-Cyanopindolol/mg sample,"Wild-Type + Gs-peptide, 125I-Cyanopindolol 0.0167722 nM, mean",434.79 fmol/mg sample
same,"fmol 125I-Cyanopindolol/mg sample, Fit",[3],7.83E+02 fmol/mg sample
same,fmol 125I-Cyanopindolol/mg sample,[3],735.259 fmol/mg sample and 854.634 fmol/mg sample and 743.19 fmol/mg sample
same,fmol 125I-Cyanopindolol/mg sample,"Wild-Type + Gs-peptide, 125I-Cyanopindolol 0.0344858 nM, mean",777.694 fmol/mg sample
same,"fmol 125I-Cyanopindolol/mg sample, Fit",[4],1.18E+03 fmol/mg sample
same,fmol 125I-Cyanopindolol/mg sample,[4],1168.59 fmol/mg sample and 1355.16 fmol/mg sample and 1153.34 fmol/mg sample
same,fmol 125I-Cyanopindolol/mg sample,"Wild-Type + Gs-peptide, 125I-Cyanopindolol 0.073983 nM, mean",1225.7 fmol/mg sample
same,"fmol 125I-Cyanopindolol/mg sample, Fit",[5],1.61E+03 fmol/mg sample
same,fmol 125I-Cyanopindolol/mg sample,[5],1680.99 fmol/mg sample and 1767.57 fmol/mg sample and 1409.36 fmol/mg sample
same,fmol 125I-Cyanopindolol/mg sample,"Wild-Type + Gs-peptide, 125I-Cyanopindolol 0.202201 nM, mean",1619.31 fmol/mg sample
same,"fmol 125I-Cyanopindolol/mg sample, Fit",[6],1.79E+03 fmol/mg sample
same,fmol 125I-Cyanopindolol/mg sample,[6],1709.61 fmol/mg sample and 1882.35 fmol/mg sample and 1548.71 fmol/mg sample
same,fmol 125I-Cyanopindolol/mg sample,"Wild-Type + Gs-peptide, 125I-Cyanopindolol 0.415365 nM, mean",1713.56 fmol/mg sample
same,"fmol 125I-Cyanopindolol/mg sample, Fit",[7],1.88E+03 fmol/mg sample
same,fmol 125I-Cyanopindolol/mg sample,[7],1837.2 fmol/mg sample and 2069.95 fmol/mg sample and 1681.21 fmol/mg sample
same,fmol 125I-Cyanopindolol/mg sample,"Wild-Type + Gs-peptide, 125I-Cyanopindolol 0.83063 nM, mean",1862.79 fmol/mg sample
same,"fmol 125I-Cyanopindolol/mg sample, Fit",[8],1.93E+03 fmol/mg sample
same,fmol 125I-Cyanopindolol/mg sample,[8],2102.36 fmol/mg sample and 2003.58 fmol/mg sample and 1852.88 fmol/mg sample
same,fmol 125I-Cyanopindolol/mg sample,"Wild-Type + Gs-peptide, 125I-Cyanopindolol 1.64238 nM, mean",1986.27 fmol/mg sample
same,125I-Cyanopindolol saturation binding signal,"Wild-Type, 0.0283 nM, Average",144.50
same,125I-Cyanopindolol saturation binding signal,"Wild-Type, 0.0283 nM, Fit",400.71
same,125I-Cyanopindolol saturation binding signal,"Wild-Type, 0.0474 nM, Average",627.51
same,125I-Cyanopindolol saturation binding signal,"Wild-Type, 0.0474 nM, Fit",590.99
same,125I-Cyanopindolol saturation binding signal,"Wild-Type, 0.10 nM, Average",1200.07
same,125I-Cyanopindolol saturation binding signal,"Wild-Type, 0.10 nM, Fit",964.14
same,125I-Cyanopindolol saturation binding signal,"Wild-Type, 1.85 nM, Average",2740.91
same,125I-Cyanopindolol saturation binding signal,"Wild-Type, 1.85 nM, Fit",2640.83
same,125I-Cyanopindolol saturation binding signal,"Wild-Type, 1.85 nM, experiments 1-3",2770.91 and 2891.39 and 2560.43
same,"fmol 125I-Cyanopindolol/mg sample, Fit","Wild-Type, 125I-Cyanopindolol 0.0198458 nM (Average)",3.84E+02 fmol/mg sample
same,"fmol 125I-Cyanopindolol/mg sample, Fit","Wild-Type, 125I-Cyanopindolol 0.0420593 nM (Average)",7.28E+02 fmol/mg sample
same,"fmol 125I-Cyanopindolol/mg sample, Fit","Wild-Type, 125I-Cyanopindolol 0.234223 nM (Average)",1.65E+03 fmol/mg sample
same,"fmol 125I-Cyanopindolol/mg sample, Fit","Wild-Type, 125I-Cyanopindolol 0.468204 nM (Average)",1.86E+03 fmol/mg sample
same,"fmol 125I-Cyanopindolol/mg sample, Fit","Wild-Type, 125I-Cyanopindolol 0.871756 nM (Average)",1.97E+03 fmol/mg sample
same,"fmol 125I-Cyanopindolol/mg sample, Fit","Wild-Type, 125I-Cyanopindolol 1.70257 nM (Average)",2.02E+03 fmol/mg sample
same,Bmax,Wild-Type,2241.12 and 1916.49 and 2106.37
same,Bmax,"Wild-Type, mean",2087.99
